row,Compound,melting point [°C]
1,COCCOC(=O)c1ccccc1Nc1nc(Nc2cc3c(cc2OC)CCN(CC(C)O)CC3)ncc1Cl (stereo unspecified),100
2,O=[N+]([O-])c1ccc(Cc2nc(-c3ccncc3)cs2)cc1,140 to 142
3,COc1ccc(-c2cnn3c(-c4cccc(NC(=O)CC(C)C)c4)ccnc23)cc1C=O,187 to 189
4,CN[C@@H]1CCN(c2ccc3c(NC(=O)CC4CCCCC4)c(Cl)ccc3n2)C1,169
5,O=C(O)c1ccc(OCC2CCN(CCOc3ccc4c(c3)OCO4)CC2)cc1,133 to 136
6,CC(NC(=O)OCc1ccccc1)P(C)(=O)O (stereo unspecified),118 to 119
7,CC(C)(C)NC(=O)c1ncc[nH]1,134
8,CC1(C)CCc2ccc(O)cc21,84.5 to 86.5
9,CN1CCc2c(sc(N)c2C(=O)c2ccccc2)C1,164 to 165
10,NS(=O)(=O)c1ccc(-n2nc(C=O)cc2-c2ccccc2)cc1,177 to 180
11,O=C(Nc1ncccn1)Nc1cccc2c1C1CCCCN1C2=O (stereo unspecified),232
12,CCN(CC)C(=O)C(c1ccccc1)n1cnc2[nH]ncc2c1=S (stereo unspecified),143 to 146
13,CCCn1ncnc1COc1nn2c(-c3ccc(F)cc3)nncc2c1-c1ccccc1F,148
14,Cc1cccc(-c2n[nH]cc2-c2ccc(F)c(-c3ccc(S(N)(=O)=O)cc3)c2)n1,115 to 118
15,COC(=O)CCCCN(CCc1c[nH]c2ccccc12)CC(C)C,103 to 104
16,CC(=O)Nc1c(C#N)c(C#N)nn1-c1c(Cl)cc(C(F)(F)F)cc1Cl,208 to 209
17,Cc1cccc(NCCC(N)=S)c1C,116 to 118
18,COC(=O)c1ccc(OCCCN(C(=O)CCC(=O)Nc2ccc(Cl)cc2)c2ccc(Cl)cc2)cc1,128 to 130
19,COc1ccc(OC)c(C#N)c1C#N,276 to 280
20,O=C(Nc1ccc(SCCCCCCCCCCCCC(Cl)(Cl)C(=O)O)cc1)c1ccc(Cl)cc1,167 to 168
21,CCc1c(CCNC(=O)CCCCC(=O)O)ccc(OC)c1OC,92 to 94
22,CCCCC(=O)NNC(=O)c1ccncc1,162
23,CNC(=O)C(Cc1ccc(OC)cc1)NC(=O)CC(SC(C)=O)C(CC(C)C)C(N)=O (stereo unspecified),235 to 240
24,NC(=O)C(CCC(=O)O)N1C(=O)c2cccc(NCc3ccco3)c2C1=O (stereo unspecified),120 to 122
25,CCCCC(=O)c1ccc(-c2ccccc2)cc1,79 to 79.5
26,COC(=O)C1=C(C)NC(C)=NC1c1ccccc1Cl (stereo unspecified),225 to 227

row,Compound,melting point [°C]
1,C=CC1(NC(=O)OC)CC(C)(C)CC(C)(C)C1,61 to 63
2,FC(F)(F)c1cc(C(F)(F)F)n(-c2ccc(NCc3ccccc3Cl)cc2)n1,240
3,CCc1ccc2sc3cc(-c4nnn[nH]4)ccc3c(=O)c2c1,247
4,COc1cccc2c(N(C)c3ccccc3)nc(N(C)c3ccccc3)nc12,169 to 170
5,O=C(Nc1ccc2[nH]c(=O)oc2c1)C(=O)N1CCC(Cc2ccc(Cl)cc2)CC1,147 to 148
6,O=S1(=O)NC(Cc2ccccc2)Nc2ccc(S(=O)(=O)N3CCCCC3)cc21 (stereo unspecified),242 to 244
7,COC(=O)CC1CC(=O)Nc2ccccc21 (stereo unspecified),115 to 116
8,O=Cc1ccc2ccn(C(c3ccccc3)c3cccc(C=Cc4ccc5ccccc5n4)c3)c2c1 (stereo unspecified),75
9,C=C(C)C(=O)OCc1ccc(O)c(C=O)c1,82 to 84
10,CCCCCCCCc1ncc([N+](=O)[O-])n1C,141
11,COc1ccc2c(Cc3ccc(OC4CCCC4N4CCCCC4)cc3)c(-c3ccc(OCCN4CCCC4)cc3)sc2c1 (stereo unspecified),61 to 64
12,O=Cc1c(Cl)cc(Cl)cc1OCc1ccc(F)cc1,107 to 108
13,OC(CCc1ccccc1)c1cc2ccncc2[nH]1 (stereo unspecified),162 to 166
14,CC(=O)c1cc(S(N)(=O)=O)ccc1F,172 to 173
15,CN(C)C(=O)c1c(-c2ccccc2)oc2c(CCl)cccc2c1=O,202 to 203
16,CC(C)(C)OC(=O)n1cnc2c(I)cc(F)cc21,73 to 74
17,CCCc1c(-c2ccncc2)[nH]c(-c2ccncc2)c1C(C)=O,111 to 113
18,Cc1c(C)c(N2CCN(c3ccc(F)cc3)CC2)c(C)c2c1OC(C)(C)C2=O,176 to 179
19,COc1ccc2cccnc2c1O,113 to 115
20,COc1cc(Cl)c(N=C2NCCN2O)c(Cl)c1,199 to 201
21,COC(=O)C=C(Nc1ccc(CC(=O)OC)cc1)C(F)(F)F,50 to 51
22,Cc1c(C(=O)Nc2ccc(N3CCN(C4CCSCC4)CC3)c(C#N)c2)cnn1-c1ccc(Cl)cc1,281
23,CCC1(C)C(=O)c2c(cc(OCC(=O)O)c(Cl)c2Cl)C1c1ccccc1 (stereo unspecified),192
24,Nc1nc(N)c2ncn(C3C=CC(CO)C3)c2n1 (stereo unspecified),152 to 155
25,CN1C(=O)CN(NC(=O)CN)C(c2ccccc2)c2cc(Cl)ccc21 (stereo unspecified),173 to 175
26,CCCCCC(=O)OCC(=O)C1CC2c3cccc4[nH]cc(c34)CC2N(C)C1 (stereo unspecified),135 to 137

row,Compound,melting point [°C]
1,CCCCC(=O)N1CCC(c2nc(-c3ccc(-c4ccccc4)cc3)c[nH]2)CC1,215 to 216
2,CCc1cc(Nc2ccc(Sc3ccc(O)cc3)cc2)nc(N)n1,181 to 184
3,COC(=O)Nc1nc2ccccc2n1C(=O)NC(=O)C(Cl)=C(Cl)Cl,231
4,CC(C)(C)n1c(=O)n(-c2ccnc(N)c2)c2ccccc21,177 to 178
5,Cc1ccccc1C=C1CCc2c1oc1ccc(C#N)cc1c2=O,260 to 262
6,OCC1OC(n2cc(Cc3ccc(C4CC4)cc3)c3c(F)cccc32)C(O)C(O)C1O (stereo unspecified),110 to 112
7,O=C(OCc1ccccc1)c1ncoc1CCNC(=O)[C@H](O)Cc1ccccc1,106 to 108
8,CCOC(=O)CNC(=O)c1cccs1,82 to 83
9,CCn1cc(C(=O)O)c(=O)c2cc(F)c(-n3cccc3)cc21,251 to 252
10,CCCOCCNC(=O)C(c1ccccc1)c1ccccc1,77.8 to 78.9
11,O=C(O)Cc1ccc(S(=O)c2ccc(Cl)cc2)cc1 (stereo unspecified),139 to 141
12,COc1cccc(CNC(=O)c2nc3ccc(F)c(OCCc4ccc(C(=O)O)cc4)c3c(=O)[nH]2)c1,227 to 229
13,O=C(O)c1ccc2cnc3ccccc3c2c1,155
14,CCCCCCCCCCCCCCOc1ccc(CN(C(C)=O)c2cccc(CBr)c2)cc1,56 to 58
15,CC(C)(NC(=O)Cc1cccc2ccccc12)C(O)c1ccccc1 (stereo unspecified),106 to 107
16,Cc1ccccc1C1=C(CC(=O)Nc2c(C(C)C)cccc2C(C)C)CN(C)c2ccc(Cl)cc21,160
17,O=C(O)Cc1c(Cl)nc(-c2ccc([N+](=O)[O-])cc2)n1Cc1ccccc1,180 to 183
18,COc1cc(OC)nc(NC(=O)NS(=O)(=O)Oc2ccccc2OCCCl)n1,132 to 134
19,Cc1[nH]n(Cc2ccc(C(=O)O)cc2)c2nc(-c3ccncc3)nc(=O)c1-2,> 300
20,CCOC(=O)c1ccc(NCCCOc2cccc3ccccc23)cc1,93 to 94
21,COc1cc(OC)cc(Sc2ccccc2C(=O)O)c1,182
22,NCC1Cc2cc(C(F)(F)F)cc(-c3ccc(C(F)(F)F)cc3)c2O1 (stereo unspecified),> 250
23,CC(=O)C=Cc1c(Cl)nc(C)c2c1CCCC2,90
24,S=C1NCCCN1c1ccccc1,211 to 212
25,O=Cc1c(Br)ncn1Cc1cc2c(cc1Cl)OCO2,136
26,N#CCNC(=O)C1(NC(=O)c2ccc(C3CCN(C4CCCC4)CC3)cc2)CCCCC1,233 to 234

row,Compound,melting point [°C]
1,Oc1cccc(-c2cnc3cnc(-c4cccc(O)c4)nc3c2)c1,264 to 265
2,CC(C)N1C(=O)CCCc2cc(Nc3ncc(Cl)c(NC4C5C=CC(C5)C4C(N)=O)n3)ccc21 (stereo unspecified),260
3,O=C(c1ccc2c(c1)OCCO2)c1ccc2[nH]c(=O)nc(-c3cccc(Cl)c3)c2c1,255
4,CNC(=O)N1CC(=O)Nc2ccc([N+](=O)[O-])cc2C1c1ccccc1 (stereo unspecified),176 to 180
5,NS(=O)(=O)c1ccc(-c2cc(F)c(F)cc2-c2ccc3c(c2)OCO3)cc1,142 to 143
6,CC(=O)NC[C@H]1CN(c2ccc(N3CCC(n4ccnc4)CC3)c(F)c2)C(=O)O1,160 to 162
7,N#CNC(=NCCN)NC1CCCC(c2csc(NC(=N)N)n2)C1 (stereo unspecified),203 to 205
8,O=[N+]([O-])c1ccc(Oc2cccc3cccnc23)cc1,165 to 166
9,N#CCCn1nc(-c2ccccc2)c(-c2ccccc2)c(C#N)c1=O,160 to 161
10,O=C(Nc1cccc(S(=O)(=O)C(F)(F)F)c1)c1cc2ccccc2cc1O,212 to 213
11,Cn1c(COc2ccc(CC3SC(=O)NC3=O)cc2)nc2ccc(Oc3ccc(NC(=O)C4CCCC4)cc3)cc21 (stereo unspecified),227 to 228
12,CC(=O)NC[C@H]1CN(c2ccc(N3CC(C)(O[Si](C)(C)C(C)(C)C)C3)c(F)c2)C(=O)O1,137 to 138
13,COC1=NS(=O)(=O)N(Cc2ccccc2)C(=O)N1,141 to 144
14,CCCc1c(OCC(O)CSCCN(C)C)ccc(C(C)=O)c1O (stereo unspecified),54 to 55
15,Cc1ccccc1C(=NC#N)NC(NC(=O)Cc1ccc(Cl)cc1)C(C)(C)C (stereo unspecified),109 to 110
16,O=C(O)c1ccc(COc2ccccc2-c2cc(O)c(SCCc3ccccc3)c(=O)o2)cc1,227
17,C[C@@H]1CN(c2ccc(C(F)(F)F)nc2)C[C@H](C)N1CC(=O)N1CC=C(c2ccc3c(c2)OCCO3)CC1,200 to 201
18,O=C(NCCN1CCCCC1)Nc1ccc(-c2nnc(CSCCOc3ccccc3)o2)cc1,126 to 128
19,O=COCCCCCC(=O)NC[C@@H]1CN2C(=O)C[C@H]2O1 (racemic),61.5 to 63
20,CCOC(=O)c1cnc2sc(CN3CCOCC3)c(C)c2c1O,182 to 185
21,NS(=O)(=O)c1ccc(CCN2C(=O)c3ccccc3C2=O)s1,226 to 229
22,C=CCOC(=O)c1ccc(NC(=O)C(=NO)c2ccc3c(c2)C(C)(C)CCC3(C)C)cc1O,108 to 109
23,N#CC(=Cc1ccc(O)c(O)c1)C(N)=S,213

# Source: a melting point compilation (Tetko et al.; mined from patent text by program, amines drawn as free bases though some values may be those of a salt)
